Measured values from patent publication US20190254984A1, “COMPOSITION AND FOOD OR DRINK” (Advanced Medical Frontier Co., Ltd., priority 2012, published 2019).

Key:
ob/ob mice [1] = assay: Example 5: plasma triglyceride; assay type: in vivo; conditions: Orz at the same amount as Nano Orz; n=6; FIG. 13
Procedure: (§1) γ-oryzanol incorporated with PLGA particles was dissolved in distilled water (hereinafter referred to as “Nano Orz”) and administered to the mice using a probe at a dose of 0.3, 1.3, or 5 μg/g of body weight per day for two days every two weeks. As a solution of γ-oryzanol which was not enclosed in the PLGA particle, γ-oryzanol (manufactured by Wako Pure Chemical Industries, Ltd.) was dissolved in a 0.5% methylcellulose solution (hereinafter referred to as “Orz”). Orz was administered to the stomach using a probe everyday for four weeks (5 or 320 μg/g of body weight/day).
(§2) Whole blood was collected from the tail vein of mice; and blood glucose was measured using a simple blood glucose meter. A blood sample was further collected from the network of the retro orbital vein. For a glucose tolerance test, the mice were fasted for 18 hours and thereafter administered with glucose at 0.75 g/kg of body weight. The blood glucose level was measured at the predetermined time. In addition, for an insulin tolerance test, insulin (0.5 unit/kg of body weight; manufactured by Eli Lilly) was intraperitoneally injected to the mice that had fasted for four hours. The concentration of triglycerides in the plasma was determined by Triglyceride E-Test Wako.
(§3) Data were expressed as mean±standard error (s.e.m). […]

ob/ob mice [2] = assay: Example 2: oral glucose tolerance test in ob/ob mice; assay type: in vivo; conditions: γ-oryzanol alone 5 and 320 μg/g of body weight/day; vs vehicle; FIG. 3C, 3D
Procedure: (§4) First, the γ-oryzanol-incorporating particle was suspended in distilled water at 5%, 1.25%, and 0.31% (w/v). As a control, γ-oryzanol was suspended in 0.5% (w/v) methylcellulose solution (manufactured by Wako Pure Chemical Industries, Ltd.) at 0.05% and 3.2% (0.5 and 32 mg/ml).
(§5) Subsequently, each of the γ-oryzanol-incorporating particle suspensions and the γ-oryzanol suspensions was orally administered to ob/ob mice (five weeks old, male, B6. Lepob/J mice (homozygote (Lepob/Lepob)), made by Charles River Laboratories Japan, Inc.) (n=6) using a probe. For the details, the γ-oryzanol-incorporating particle suspension at 0.3, 1.3, and 5 μg/g of body weight/14 days in terms of γ-oryzanol was administered to the mice for two days followed by a five-day rest period every two weeks; and observation was made for 14 days. The daily dose was 1.1, 4.4, and 17.5 μg/g of body weight/day, respectively. […]
(§6) One week and two weeks after the beginning of the administration, the body weight and blood glucose level of the mice were measured. […] In such a test, following to 18-hour fasting, glucose was orally administered at 0.75 g/kg using a probe; and the blood glucose level was measured from the time of administration to two hours thereafter.

obese mice = conditions: oral γ-oryzanol 320 mg/kg; cited from earlier work
TNF-α = assay: Example 5: inflammation marker gene expression in adipose tissues (real time PCR), TNF-α; assay type: in vivo, mice; conditions: Orz even at 320 μg/g of body weight/day, N=8
Procedure: as §1
(§7) The hypothalamus, the islets of Langerhans, the adipose tissue of the mesentery, the liver, the epididymal adipose tissue, and the subcutaneous adipose tissue were collected from the mice; and the expression level of ER stress marker genes (Chop, ERdj4, and Xbp1s), and inflammation marker genes (TNF-α and MCP-1) was quantified using a quantitative real time polymerase chain reaction. The islets of Langerhans was isolated from mice by digestion with collagenase (Liberase TL; manufactured by Roche Diagnostics K.K.) and purified using Histopaque (trademark) gradient (Histopaque 1077; manufactured by Sigma-Aldrich). […]
as §3

ob/ob mice [3] = assay: Example 5: glucose tolerance test; assay type: in vivo; conditions: Orz even at 320 μg/g of body weight/day; n=14; FIG. 11C, 11D
Procedure: as §1, §2, §3

ob/ob mice [4] = assay: Example 2: body weight of ob/ob mice after oral administration; assay type: in vivo; conditions: γ-oryzanol alone, oral daily 5 and 320 μg/g of body weight/day; FIG. 1B
Procedure: The γ-oryzanol-incorporating particle prepared in Example 1 was orally administered to mice for evaluation.
as §4, §5, §6

ob/ob mice [5] = assay: Example 5: blood glucose level of genetically obese mice over four weeks; assay type: in vivo; conditions: Orz even at 320 μg/g of body weight/day, n=14, FIG. 10B
Procedure: (§8) Ob/ob mice were raised at 24° C. under a light/dark cycle of 12 hours/12 hours. The mice were raised in conditions where they were able to freely take feed and water. The body weight of mice was measured every week.
as §1
as §2, with “In addition, for an insulin tolerance test, insulin (0.5 unit/kg of body weight; manufactured by Eli Lilly) was intraperitoneally injected to the mice that had fasted for four hours.” left out
as §3

Chop = assay: Example 5: ER stress marker gene expression in tissues (real time PCR), Chop; assay type: in vivo, mice; conditions: for expression level of Chop: hypothalamus, Orz even at 320 μg/g of body weight/day
Procedure: as §1
(§9) The hypothalamus, the islets of Langerhans, the adipose tissue of the mesentery, the liver, the epididymal adipose tissue, and the subcutaneous adipose tissue were collected from the mice; and the expression level of ER stress marker genes (Chop, ERdj4, and Xbp1s), and inflammation marker genes (TNF-α and MCP-1) was quantified using a quantitative real time polymerase chain reaction. The islets of Langerhans was isolated from mice by digestion with collagenase (Liberase TL; manufactured by Roche Diagnostics K.K.) and purified using Histopaque (trademark) gradient (Histopaque 1077; manufactured by Sigma-Aldrich).
(§10) Using TRIzol (registered trademark) RNA Isolation Reagents (manufactured by Life Technologies Corporation), total RNA was extracted from each of the tissues; and cDNA was synthesized using iScript (trademark) cDNA Synthesis Kit (manufactured by Bio-Rad Laboratories, Inc.). Next, quantitative real time PCR was carried out using StepOnePlus (trademark) Real-Time PCR System, Fast TaqMan Universal Master Mix, and Fast SYBR Green Master Mix (manufactured by Applied Biosystems). The level of mRNA was normalized with that of 18S rRNA.
(§11) Data were expressed as mean±standard error (s.e.m). One-way analysis of variance, repeated measures analysis of variance, and multiple comparisons following repeated measures analysis of variance (Bonferroni/Dunn method) were employed as appropriate. For analysis of difference between two groups, Student's t-test was employed. […]

ob/ob mice [6] = assay: Example 5: body weight of genetically obese mice over four weeks; assay type: in vivo; conditions: Orz everyday for four weeks, even at 320 μg/g of body weight/day; n=14; FIG. 9B
Procedure: as §8, §1
Data were expressed as mean±standard error (s.e.m). One-way analysis of variance, repeated measures analysis of variance, and multiple comparisons following repeated measures analysis of variance (Bonferroni/Dunn method) were employed as appropriate. For analysis of difference between two groups, Student's t-test was employed. Difference was considered to be significant with P<0.05.

Xbp1s = assay: Example 5: ER stress marker gene expression in tissues (real time PCR), Xbp1s; assay type: in vivo, mice; conditions: Orz even at 320 μg/g of body weight/day, N=8
Procedure: as §1, §9, §10, §11

MCP-1 = assay: Example 5: inflammation marker gene expression in adipose tissues (real time PCR), MCP-1; assay type: in vivo, mice; conditions: Orz even at 320 μg/g of body weight/day, N=8
Procedure: as §1, §7, §3

ob/ob mice [7] = assay: Example 5: insulin tolerance test; assay type: in vivo; conditions: Orz even at 320 μg/g of body weight/day; n=14; FIG. 12C, 12D
Procedure: as §1, §2, §3

ob/ob mice [8] = assay: Example 2: blood glucose level of ob/ob mice; assay type: in vivo; conditions: γ-oryzanol alone, oral daily 5 and 320 μg/g of body weight/day; FIG. 2B
Procedure: as §4, §5, §6

[9] = test system: IL-8 secretion from TNF-α-stimulated intestinal epithelial cells (Caco-2); assay: Example 3: IL-8 secretion upon TNF-α stimulation of Caco-2 cells (ELISA); assay type: cell-based, human; conditions: 24 h pretreatment with 1 μg/ml of γ-oryzanol; a decrease observed; compared with no and 0.1 μg/ml γ-oryzanol; FIG. 7A
Procedure: As for cells, Caco-2 (RCB0988, RIKEN, the Institute of Physical and Chemical Research) was used. Caco-2 was cultured in a […] culture dish until reaching semiconfluent. As for a medium, Dulbecco modified Eagle's Medium (DMEM, D5796, manufactured by Sigma-Aldrich) was used. To the medium, non-essential amino acids (M7145, manufactured by Sigma-Aldrich) and Penicillin/Streptomycin (hereinafter referred to as “PS”; manufactured by Gibco, Life Technologies Corporation Japan) were added.
Cells with 50 passages were detached with 0.25% trypsin/0.02% EDTA and seeded in a 24-well plate at a concentration of 2×10^5 cells/well. The cells were cultured in DMEM with 10% FBS (fetal bovine serum), 1% non-essential amino acids, and 1% PS for 14 days. The medium was changed every other day; and the cells were sufficiently differentiated to be used the experiment below.
The medium was removed 24 hours before stimulation with TNF-α; and the cells were washed with 1 ml of PBS per well twice. […]
The collected supernatant was subjected to ELISA (enzyme immunity measurement assay) to measure the amount of IL-8 in the supernatant. […] At the same time, the total amount of proteins in the supernatant was measured by using a bicinchoninic acid assay (Pierce BCA Protein Assay Kit, manufactured by Thermo Scientific). […]

ERdj4 = assay: Example 5: ER stress marker gene expression in tissues (real time PCR), ERdj4; assay type: in vivo, mice; conditions: Orz even at 320 μg/g of body weight/day
Procedure: as §1, §7, §3

## γ-oryzanol
ob/ob mice [1]
  concentration of plasma triglyceride: not decreased
ob/ob mice [2]
  blood glucose level in oral glucose tolerance test: comparable
Obese mice
  blood glucose level: decreased
  insulin secretion: promotion
  lipid absorption from the small intestine: inhibition
  taste for high fat diets: restriction
TNF-α; epididymal adipose tissue, FIG. 16A
  expression level of TNF-α: did not inhibit
TNF-α; subcutaneous fatty tissue, FIG. 16C
  expression level of TNF-α: did not inhibit
ob/ob mice [3]
  glucose tolerance (glucose tolerance test, blood glucose and AUC): no improvement
ob/ob mice [4]
  weight gain: not observed
ob/ob mice [5]
  blood glucose level: no significant change
Chop; adipose tissue in the mesentery, Orz 320 μg/g of body weight/day, N=8, FIG. 15A
  expression of Chop: significantly inhibited
Chop; N=8, FIG. 14A
  expression level of Chop: did not inhibit
Chop; printed in the sentence on ERdj4 (FIG. 14B)
  expression level of Chop: did not inhibit
ob/ob mice [6]
  weight gain: no significant suppression
Xbp1s; adipose tissue in the mesentery, FIG. 15B
  expression level of Xbp1s: did not inhibit
Xbp1s; islets of Langerhans, FIG. 14D
  expression level of Xbp1s: did not inhibit
Xbp1s; liver, FIG. 15D
  expression level of Xbp1s: did not inhibit
MCP-1; epididymal adipose tissue, FIG. 16B
  expression level of MCP-1: did not inhibit
MCP-1; subcutaneous fatty tissue, FIG. 16D
  expression level of MCP-1: did not inhibit
ob/ob mice [7]
  insulin tolerance (insulin tolerance test, blood glucose and AUC): no improvement
ob/ob mice [8]
  blood glucose level: not observed
[9]
  amount of IL-8 in the supernatant: no significant difference
ERdj4; islets of Langerhans, N=8, FIG. 14C
  expression level of ERdj4: did not inhibit
ERdj4; liver, printed in the sentence on Chop (FIG. 15C)
  expression level of ERdj4: did not inhibit
